Values quoted from earlier work in US11576886B2, “Constructs comprising fatty acids” (POLYREM LIMITED, priority 2017, dated 2023).

Test system: Wnt/β-catenin signalling
In the case of `CNCCC(Oc1ccc(C(F)(F)F)cc1)c1ccccc1` (centres unmarked) [Fluoxetine], the Wnt/β-catenin signalling is given as “increase Wnt/β-catenin signalling”.
In the case of `COCCCC/C(=N\OCCN)c1ccc(C(F)(F)F)cc1` [Fluvoxamine], the Wnt/β-catenin signalling is listed as “increase Wnt/β-catenin signalling”.
In the case of `O=C(CCCN1CCC(O)(c2ccc(Cl)cc2)CC1)c1ccc(F)cc1` [Haloperidol], the Wnt/β-catenin signalling is listed as “increase Wnt/β-catenin signalling”.
For `Cc1nc2n(c(=O)c1CCN1CCC(c3noc4cc(F)ccc34)CC1)CCCC2` [Risperidone], the Wnt/β-catenin signalling is given as “increase Wnt/β-catenin signalling”.
For `COc1ccc(C(CN(C)C)C2(O)CCCCC2)cc1` (centres unmarked) [Venlafaxine], the Wnt/β-catenin signalling is listed as “increase Wnt/β-catenin signalling”.
